Patent US9402849B2, “Composition for moderating alcohol metabolism and for reducing the risk of alcohol induced diseases” (Tima Foundation, priority 2005, dated 2016)
Where “and” joins values, the source holds several entries; their conditions need not be identical. Equal values may be shown once.

How the values were obtained:
RPMI4788 cells = assay: Alcohol enhanced pulmonary metastasis of RPMI4788 cells in nude mice (nodules on lung surface); type: in vivo
Method: Ingredients of Supplement except Coenzyme Q10 were purchased from Sigma Aldrich Japan (Tokyo, Japan). Ten gram of dextrose, 1.0 gram of Vitamin C, 1.5 gram of L-glutamine, 500 mg of cysteine, 40 mg of riboflavin, 100 mg of succinic acid, 100 mg of fumaric acid, and 10 mg of niacin were dissolved in 100 ml of distilled water (Supplement Solution). One hundred mg of Coenzyme Q10 (Jarrow Formulas, Los Angels, Calif., USA) was dissolved in 14 ml of sesame oil.
Male, 6-week-old nude mice of BALB/cA-jcl-nu/nu class were purchased (Clea Japan Inc., Shizuoka, Japan) and allowed to acclimate for one week prior to the study. During the experiment the mice were maintained at a temperature of 23° C., 50% humidity and a specific-pathogen-free (SPF) condition.
RPM14788 cells derived from human colorectal cancer generate pulmonary metastasis in nude mouse (Moore G E & Koike A (1964), Cancer January, 17: 11-20; Kondo H. et al. (1987), Jpn J Cancer Res (Gann) 78, 12: 1400-1408). The cell line was subcultured in tissue culture flasks with culture medium of RPMI1640 solution (Nikken Biomedical Laboratory, Kyoto, Japan) supplemented with 10% Fetal Bovine Serum. (FBS) (Hycione Laboratories Inc., Logan, Utah) at 37° C., in an atmosphere of 100% humidity, 5% CO2 and 95% air. Following isolation of the cultured cells by 0.02% EDTA, a cell suspension was prepared using PBS of 0.01M; trypan blue staining confirmed cell viability over 98%.
To produce lung metastases, nude mice were injected cell suspension of 5×10^4/0.1 ml into tail vein. Twenty-eight days after the injection, all metastatic nodules on the lung surface were counted. The lung was fixed in 10% neutral formaldehyde and embedded in paraffin. Sections were stained with Hematoxylin-Eosin and examined histologically.
For testing the supplement, 320 μl of supplement solution and 50 μl of Co-Q10 dissolved sesame oil per mouse were administrated to the stomach by oral metal tube. For assaying the effects of Supplement+EtOH, one hour after the supplement administration, 7.0 ml/kg of ethanol were injected into the peritoneal cavity. Then 1 hour after the ethanol injection, 5×10^4/100 μl of RPM14788 cells were injected into the tail vein. The nude mice were sacrificed 28 days after the cell injection and the metastatic nodules on the lung surface were counted.

YAC-1 cells = assay: NK cytotoxic activity of nude mouse splenocytes, short-term 51Cr-release assay; type: in vivo; conditions: for NK activity, % Control: EtOH versus control nude mice
Method: A short-term ^51Cr-release assay was used to determine the natural killer (NK) cytotoxic activity. Mice were divided in following 3 groups; control, ethanol administration, and Supplement and ethanol administration. Twenty, four hours after the ethanol administration, splenocytes of the nude mouse were separated as single cell suspension. Target YAC-1 cells (1×10^7) were labeled by incubation with 200 μCi of ^51Cr for 2 hours at 37C. After being washed and then incubated for 2 hours at 37° C., the cells were supplemented in RPMI1640 medium. 20 μl of the labeled target cells and 100 μl of effector cells were mixed into a 96-well microliter plate (Sumitomo Bakelite Co., Ltd., Tokyo, Japan) at various effector/target cell ratios. After 4 hours of incubation, the plates were centrifuged and the radioactivity of the supernatant was measured by a gamma-counter. The percent of cytotoxicity was calculated as (experimental group release−spontaneous release/total release−spontaneous release). Statistical analysis of the results was conducted by t^2 test, and […] was defined as the level of significance.

For CCO [ETOH, ethanol], the “Number of Metastatic nodules on the lung surface, Average” value (RPMI4788 cells; ETOH + 4788, 16 mice) was 42.25, the “Number of Metastatic nodules on the lung surface, Total” value (RPMI4788 cells; ETOH + 4788, 16 mice) was 676 and the “Number of Metastatic nodules on the lung surface” value (RPMI4788 cells; ETOH + 4788, single mouse, ethanol 7.0 ml/kg i.p. 1 h before cells, 28 days) was 75 and 58 and 69 and 62 and 18 and 19 (2×) and 21 (2×) and 24 and 20 (2×) and 48 and 70 and 64 and 68. The “Total metastatic nodules minus 4788” value (RPMI4788 cells; ETOH + 4788, total minus control total) was 251, the “Enhancement of metastatic potential of 4788 cell line” value (RPMI4788 cells; Ethanol + 4788 versus control) was “approximately 60%” and the NK activity (YAC-1 cells; EtOH) was 11.20%. For the same compound, the “NK activity, % Control” value (YAC-1 cells; listed as EtOH) was 45.5%, the “NK activity, % Control” value (YAC-1 cells; listed as Ethanol) was 45.5% and the “Average cont (51Cr release)” value (YAC-1 cells; EtOH, splenocytes 24 h after ethanol) was 568.6.
